According to US5530126A, “Process for the preparation of substituted 6-(pyrazol-3yl)-1,4-benzoxazin-3-ones” (Monsanto Company, priority 1994, dated 1996):

Legend:
Type in all cases: in vivo
[1] = test system: Indian Mustard; assay: Pre-emergence herbicide test; details: Brassica juncea, read-out: % plant inhibition (Inmu); for inhibition at 1120 g/ha: 1.12 kg/ha; for inhibition at 11210 g/ha: 11.21 kg/ha
Method in brief: (§1)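 Seeds placed atop topsoil compacted to 0.95 to 1.27 cm below pan rim. Active ingredient (known amount) applied to seed bed in organic solvent or water. Untreated topsoil layer added to level; greenhouse growth with subirrigation; % inhibition at usually 11 days.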

[2] = test system: Annual bluegrass; assay: Pre-emergence herbicide test; details: read-out: % plant inhibition (Anbg); for inhibition at 1120 g/ha: 1.12 kg/ha; for inhibition at 11210 g/ha: 11.21 kg/ha
Method in brief: as §1

[3] = test system: Seedling johnsongrass; assay: Pre-emergence herbicide test; details: Sorghum halepense, read-out: % plant inhibition (Sejg); for inhibition at 1120 g/ha: 1.12 kg/ha; for inhibition at 11210 g/ha: 11.21 kg/ha
Method in brief: as §1

[4] = test system: Downy Brome; assay: Pre-emergence herbicide test; details: Bromus tectorum, read-out: % plant inhibition (Dobr); for inhibition at 1120 g/ha: 1.12 kg/ha; for inhibition at 11210 g/ha: 11.21 kg/ha
Method in brief: as §1

[5] = test system: Morningglory; assay: Pre-emergence herbicide test; details: Ipomoea, read-out: % plant inhibition (Mogl); for inhibition at 1120 g/ha: 1.12 kg/ha; for inhibition at 11210 g/ha: 11.21 kg/ha
Method in brief: as §1

[6] = test system: Wild buckwheat; assay: Pre-emergence herbicide test; details: Fallopia convolvulus, read-out: % plant inhibition (Wibw); for inhibition at 1120 g/ha: 1.12 kg/ha; for inhibition at 11210 g/ha: 11.21 kg/ha
Method in brief: as §1

[7] = test system: Yellow nutsedge; assay: Pre-emergence herbicide test; details: Cyperus, read-out: % plant inhibition (Yens); for inhibition at 1120 g/ha: 1.12 kg/ha; for inhibition at 11210 g/ha: 11.21 kg/ha
Method in brief: as §1

[8] = test system: Velvetleaf; assay: Pre-emergence herbicide test; details: Abutilon theophrasti, read-out: % plant inhibition (Vele); for inhibition at 1120 g/ha: 1.12 kg/ha; for inhibition at 11210 g/ha: 11.21 kg/ha
Method in brief: as §1

[9] = test system: Cocklebur; assay: Pre-emergence herbicide test; details: Xanthium strumarium, read-out: % plant inhibition (Cobu); for inhibition at 1120 g/ha: 1.12 kg/ha; for inhibition at 11210 g/ha: 11.21 kg/ha
Method in brief: as §1

[10] = test system: Barnyardgrass; assay: Pre-emergence herbicide test; details: Echinochloa crus-galli, read-out: % plant inhibition (Bygr); for inhibition at 1120 g/ha: 1.12 kg/ha; for inhibition at 11210 g/ha: 11.21 kg/ha
Method in brief: as §1

[11] = test system: Indian Mustard; assay: Post-emergence herbicide test; details: Brassica juncea, read-out: % plant inhibition (Inmu); for inhibition at 1120 g/ha: 1.12 kg/ha; for inhibition at 11210 g/ha: 11.21 kg/ha
Method in brief: (§2)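 Candidate compound was suspended or dissolved with about 0.4% by volume emulsifier and sprayed onto emerged plants two to three weeks old. Application volume equalled 1870 L/Ha at 170.3 kPa. Plants then returned to greenhouse; percent inhibition compared with control recorded at 10–14 days.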

[12] = test system: Annual bluegrass; assay: Post-emergence herbicide test; details: read-out: % plant inhibition (Anbg); for inhibition at 1120 g/ha: 1.12 kg/ha; for inhibition at 11210 g/ha: 11.21 kg/ha
Method in brief: as §2

[13] = test system: Seedling johnsongrass; assay: Post-emergence herbicide test; details: Sorghum halepense, read-out: % plant inhibition (Sejg); for inhibition at 1120 g/ha: 1.12 kg/ha; for inhibition at 11210 g/ha: 11.21 kg/ha
Method in brief: as §2

[14] = test system: Downy Brome; assay: Post-emergence herbicide test; details: Bromus tectorum, read-out: % plant inhibition (Dobr); for inhibition at 1120 g/ha: 1.12 kg/ha; for inhibition at 11210 g/ha: 11.21 kg/ha
Method in brief: as §2

[15] = test system: Morningglory; assay: Post-emergence herbicide test; details: Ipomoea, read-out: % plant inhibition (Mogl); for inhibition at 1120 g/ha: 1.12 kg/ha; for inhibition at 11210 g/ha: 11.21 kg/ha
Method in brief: as §2

[16] = test system: Wild buckwheat; assay: Post-emergence herbicide test; details: Fallopia convolvulus, read-out: % plant inhibition (Wibw); for inhibition at 1120 g/ha: 1.12 kg/ha; for inhibition at 11210 g/ha: 11.21 kg/ha
Method in brief: as §2

[17] = test system: Yellow nutsedge; assay: Post-emergence herbicide test; details: Cyperus, read-out: % plant inhibition (Yens); for inhibition at 1120 g/ha: 1.12 kg/ha; for inhibition at 11210 g/ha: 11.21 kg/ha
Method in brief: as §2

[18] = test system: Velvetleaf; assay: Post-emergence herbicide test; details: Abutilon theophrasti, read-out: % plant inhibition (Vele); for inhibition at 1120 g/ha: 1.12 kg/ha; for inhibition at 11210 g/ha: 11.21 kg/ha
Method in brief: as §2

[19] = test system: Cocklebur; assay: Post-emergence herbicide test; details: Xanthium strumarium, read-out: % plant inhibition (Cobu); for inhibition at 1120 g/ha: 1.12 kg/ha; for inhibition at 11210 g/ha: 11.21 kg/ha
Method in brief: as §2

[20] = test system: Barnyardgrass; assay: Post-emergence herbicide test; details: Echinochloa crus-galli, read-out: % plant inhibition (Bygr); for inhibition at 1120 g/ha: 1.12 kg/ha; for inhibition at 11210 g/ha: 11.21 kg/ha
Method in brief: as §2

| Compound | inhibition at 1120 g/ha [1] [%] | inhibition at 1120 g/ha [2] [%] | inhibition at 1120 g/ha [3] [%] | inhibition at 1120 g/ha [4] [%] | inhibition at 1120 g/ha [5] [%] | inhibition at 1120 g/ha [6] [%] | inhibition at 1120 g/ha [7] [%] | inhibition at 1120 g/ha [8] [%] | inhibition at 1120 g/ha [9] [%] | inhibition at 1120 g/ha [10] [%] | inhibition at 1120 g/ha [11] [%] | inhibition at 1120 g/ha [12] [%] | inhibition at 1120 g/ha [13] [%] | inhibition at 1120 g/ha [14] [%] | inhibition at 1120 g/ha [15] [%] | inhibition at 1120 g/ha [16] [%] | inhibition at 1120 g/ha [17] [%] | inhibition at 1120 g/ha [18] [%] | inhibition at 1120 g/ha [19] [%] | inhibition at 1120 g/ha [20] [%] | also measured |
| --- | --- | --- | --- | --- | --- | --- | --- | --- | --- | --- | --- | --- | --- | --- | --- | --- | --- | --- | --- | --- | --- |
| CCOC(=O)C(C)=Cc1cc(-c2nn(C)c(C(F)(F)F)c2Cl)c(F)cc1Cl [Compound 127] | 90 | 0 | 20 | 0 | 70 | 100 | 0 | 100 | 20 | 30 | 100 | 20 | 100 | 80 | 100 | 100 | 20 | 100 | 100 | 60 | – |
| Cn1nc(-c2cc(COCCF)c(Cl)cc2F)c(Cl)c1C(F)(F)F [Compound 116] | 90 | 90 | 90 | 80 | 90 | 100 | 0 | 100 | 50 | 90 | 80 | 80 | 70 | 70 | 100 | 80 | 20 | 100 | 100 | 80 | – |
| C#CCOc1cc(-c2nn(C)c(C(F)(F)F)c2Cl)c(F)cc1Br [Compound 96] | 100 | 100 | 90 | 100 | 100 | 100 | 20 | 100 | 60 | 80 | 100 | 100 | 100 | 100 | 100 | 100 | 40 | 100 | 90 | 100 | – |
| CCC(C)OC(=O)c1cc(-c2nn(C)c(C(F)(F)F)c2Cl)c(F)cc1Cl (stereo not drawn) [Compound 136] | 90 | 90 | 90 | 100 | 80 | 100 | 0 | 90 | 80 | 70 | 100 | 100 | 100 | 100 | 100 | 100 | 10 | 100 | 100 | 100 | – |
| Cn1nc(-c2cc(N)c(Cl)cc2F)c(Cl)c1C(F)F [Compound 178] | 90 | 20 | 10 | 30 | 50 | 100 | 0 | 100 | 20 | 10 | 70 | 90 | 70 | 90 | 100 | 100 | 0 | 100 | 90 | 70 | – |
| Cn1nc(-c2cc(CC(=O)O)c(Cl)cc2F)c(Cl)c1C(F)(F)F [Compound 111] | – | – | – | – | – | – | – | – | – | – | – | – | – | – | – | – | – | – | – | – | inhibition at 11210 g/ha [1]: 100%; inhibition at 11210 g/ha [2]: 80%; inhibition at 11210 g/ha [3]: 80%; inhibition at 11210 g/ha [4]: 70%; inhibition at 11210 g/ha [5]: 100%; inhibition at 11210 g/ha [6]: 100%; inhibition at 11210 g/ha [7]: 60%; inhibition at 11210 g/ha [8]: 100%; inhibition at 11210 g/ha [9]: 90%; inhibition at 11210 g/ha [10]: 40%; inhibition at 11210 g/ha [11]: 80%; inhibition at 11210 g/ha [12]: 0%; inhibition at 11210 g/ha [13]: 20%; inhibition at 11210 g/ha [14]: 20%; inhibition at 11210 g/ha [15]: 100%; inhibition at 11210 g/ha [16]: 100%; inhibition at 11210 g/ha [17]: 30%; inhibition at 11210 g/ha [18]: 100%; inhibition at 11210 g/ha [19]: 100%; inhibition at 11210 g/ha [20]: 60% |
| Cc1cc(-c2c(Cl)c(C(F)F)nn2C)c(F)cc1Cl [Compound 64] | – | – | – | – | – | – | – | – | – | – | – | – | – | – | – | – | – | – | – | – | inhibition at 11210 g/ha [1]: 100%; inhibition at 11210 g/ha [2]: 90%; inhibition at 11210 g/ha [3]: 80%; inhibition at 11210 g/ha [4]: 90%; inhibition at 11210 g/ha [5]: 80%; inhibition at 11210 g/ha [6]: 100%; inhibition at 11210 g/ha [7]: 10%; inhibition at 11210 g/ha [8]: 100%; inhibition at 11210 g/ha [9]: 10%; inhibition at 11210 g/ha [10]: 80%; inhibition at 11210 g/ha [11]: 20%; inhibition at 11210 g/ha [12]: 20%; inhibition at 11210 g/ha [13]: 20%; inhibition at 11210 g/ha [14]: 0%; inhibition at 11210 g/ha [15]: 60%; inhibition at 11210 g/ha [16]: 80%; inhibition at 11210 g/ha [17]: 0%; inhibition at 11210 g/ha [18]: 60%; inhibition at 11210 g/ha [19]: 20%; inhibition at 11210 g/ha [20]: 30% |
| CC(C)OC(=O)COc1cc(-c2nn(C)c(C(F)(F)Cl)c2Cl)c(F)cc1Cl [Compound 285] | 10 | 0 | 0 | 0 | 100 | 80 | 0 | 100 | 80 | 50 | 100 | 30 | 50 | 40 | 100 | 100 | 40 | 100 | 100 | 70 | – |
| Cn1nc(-c2cc(NS(C)(=O)=O)c(Cl)cc2Cl)c(Cl)c1C(F)(F)F [Compound 91] | 90 | 0 | 0 | 0 | 90 | 70 | 0 | 100 | 20 | 0 | 50 | 50 | 40 | 40 | 60 | 80 | 10 | 40 | 100 | 30 | – |
